Measured values: patent publication US7807828B2, “Olanzapine analogs and methods of use thereof” (Hypnion, Inc., priority 2005, dated 2010)
Several values for one entry are separate records, joined by “and”; a condition that tells them apart may be missing. Equal entries are not always repeated.

What was measured:
[1] = target: T1, H1 (hr) (Homo sapiens, UniProt P35367); assay: H1 (hr) Novascreen binding assay; details: Table 7A; Ki in nM
T1 construct: Novascreen, MDS, Cerep (assay providers)
Method: (§1) Binding assays were performed using various sleep-inducing agents and derivatives selected from those listed in Table 1 in competitive binding assays with known standards for the H1 histamine receptor, and the M1, M2, and M3 muscarinic receptors, alpha 1 and alpha 2 receptors, D1 and D2 receptors, 5HT2a, 5HT2b, 5HT2c, 5HT2c, and 5HT7 receptors.
(§2) The histamine H1 assays are described in Chang, et al., Heterogeneity of Histamine H1-Receptors: Species Variation in [^3H]Mepyramine Binding of Brain Membranes. Journal of Neurochemistry. 32: 1653-1663 (1979); Martinez-Mir, M. I., Pollard, H., Moreau, J., et al. Three Histamine Receptors (H1, H2, and H3) Visualized in the Brain of Human and Non-Human Primates. Brain Res. 526: 322-327 (1990); Haaksma, E. E. J., Leurs, R. and Timmerman, H. Histamine Receptors: Subclasses and Specific Ligands. Pharmac. Ther. 47: 73-104 (1990). The muscarinic assays are described in Buckley, N. J., Bonner, T. I., Buckley, C. M., and Brann, M. R. Antagonist Binding Properties of Five Cloned Muscarinic Receptors Expressed in CHO-K1 Cells. Mol. Pharmacol. 35: 469-476 (1989). The assays were performed according to the preceding articles, with the following modifications. Chemical reagents in the following were obtained from Sigma, St. Louis, Mo.

[2] = target: T2, human recombinant M1 expressed in CHO cells (Homo sapiens, UniProt P11229); assay: M1 muscarinic receptor binding assay; details: Table 7A, first line of column M1 M2 M3
T2 construct: purchased PerkinElmer, Inc., Wellesley, Mass; host or cells: CHO cells
T2 sequence (P11229 1-460): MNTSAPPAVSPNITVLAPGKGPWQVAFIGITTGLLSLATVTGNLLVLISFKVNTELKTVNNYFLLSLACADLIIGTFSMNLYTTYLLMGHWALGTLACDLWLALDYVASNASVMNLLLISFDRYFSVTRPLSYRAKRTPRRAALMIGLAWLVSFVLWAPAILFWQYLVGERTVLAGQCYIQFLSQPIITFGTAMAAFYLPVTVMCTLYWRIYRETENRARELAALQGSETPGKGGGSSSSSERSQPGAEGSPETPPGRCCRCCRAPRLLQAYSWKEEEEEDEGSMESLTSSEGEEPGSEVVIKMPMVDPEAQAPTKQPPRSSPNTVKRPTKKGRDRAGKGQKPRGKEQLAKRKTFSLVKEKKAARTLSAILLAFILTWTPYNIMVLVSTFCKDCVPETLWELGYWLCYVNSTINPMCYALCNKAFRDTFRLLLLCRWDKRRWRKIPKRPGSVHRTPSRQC

[3] = target: T3, histamine H1 receptor (bovine) (Bos taurus, UniProt P30546); assay: Histamine H1 binding assay, bovine cerebellar membranes, [3H]pyrilamine; details: for Ki: Table 7A, Ki in nM
T3 construct: the receptors were obtained from bovine cerebellar membrane tissue; from tissue; host or cells: bovine cerebellar membranes
T3 sequence (P30546 whole entry): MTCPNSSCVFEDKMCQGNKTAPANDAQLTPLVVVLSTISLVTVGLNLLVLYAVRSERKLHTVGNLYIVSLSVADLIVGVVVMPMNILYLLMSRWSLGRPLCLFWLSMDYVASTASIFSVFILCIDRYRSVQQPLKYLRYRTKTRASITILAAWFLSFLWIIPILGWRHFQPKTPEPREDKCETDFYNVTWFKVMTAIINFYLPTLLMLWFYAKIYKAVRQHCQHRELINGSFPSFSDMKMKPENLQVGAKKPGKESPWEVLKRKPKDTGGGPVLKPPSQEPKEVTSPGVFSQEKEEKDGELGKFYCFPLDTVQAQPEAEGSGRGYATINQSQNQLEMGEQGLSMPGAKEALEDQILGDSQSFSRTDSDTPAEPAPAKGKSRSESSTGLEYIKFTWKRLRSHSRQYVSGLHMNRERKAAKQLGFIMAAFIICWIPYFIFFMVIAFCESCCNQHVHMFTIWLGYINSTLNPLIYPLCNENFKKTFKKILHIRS

[4] = target: T4, human recombinant M2 expressed in CHO cells (Homo sapiens, UniProt P08172); assay: M2 muscarinic receptor binding assay; details: Table 7A, M1 M2 M3
T4 construct: purchased PerkinElmer, Inc., Wellesley, Mass; host or cells: CHO cells
T4 sequence (P08172 1-466): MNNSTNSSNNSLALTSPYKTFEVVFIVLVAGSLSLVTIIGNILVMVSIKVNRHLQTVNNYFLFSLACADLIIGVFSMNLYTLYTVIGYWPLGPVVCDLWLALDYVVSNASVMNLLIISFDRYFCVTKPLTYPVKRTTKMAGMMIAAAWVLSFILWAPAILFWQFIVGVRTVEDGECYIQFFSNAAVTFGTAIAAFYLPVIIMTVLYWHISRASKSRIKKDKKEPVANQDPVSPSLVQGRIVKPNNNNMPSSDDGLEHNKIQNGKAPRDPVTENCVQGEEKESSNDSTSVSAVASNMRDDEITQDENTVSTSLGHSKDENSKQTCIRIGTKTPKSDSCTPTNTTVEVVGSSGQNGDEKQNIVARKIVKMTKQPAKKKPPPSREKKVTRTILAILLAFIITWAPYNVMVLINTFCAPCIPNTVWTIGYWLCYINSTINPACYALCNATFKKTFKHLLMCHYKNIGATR

[5] = target: 5HT2a (rat) (Rattus norvegicus, UniProt P14842); assay: 5HT2a (rat) binding assay; details: Table 7A; unit inferred
Sequence of 5HT2a (rat) (P14842 whole entry): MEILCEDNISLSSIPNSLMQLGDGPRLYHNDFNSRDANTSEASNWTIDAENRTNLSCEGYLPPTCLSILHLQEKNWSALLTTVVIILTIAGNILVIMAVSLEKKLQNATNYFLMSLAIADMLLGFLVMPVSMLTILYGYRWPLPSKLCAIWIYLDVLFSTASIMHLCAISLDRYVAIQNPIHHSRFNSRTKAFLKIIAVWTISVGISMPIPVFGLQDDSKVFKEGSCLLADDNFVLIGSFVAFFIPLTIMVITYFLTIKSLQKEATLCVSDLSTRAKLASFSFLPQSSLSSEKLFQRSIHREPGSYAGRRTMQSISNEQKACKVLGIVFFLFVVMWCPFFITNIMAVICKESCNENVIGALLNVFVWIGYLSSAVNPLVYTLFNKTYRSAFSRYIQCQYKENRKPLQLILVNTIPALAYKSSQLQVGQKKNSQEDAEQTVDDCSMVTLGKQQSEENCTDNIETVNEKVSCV

[6] = target: D1 (h) (Homo sapiens, UniProt P21728); assay: Dopamine D1 (human recombinant) binding assay; details: Table 7A; unit inferred
Sequence of D1 (h) (P21728 whole entry): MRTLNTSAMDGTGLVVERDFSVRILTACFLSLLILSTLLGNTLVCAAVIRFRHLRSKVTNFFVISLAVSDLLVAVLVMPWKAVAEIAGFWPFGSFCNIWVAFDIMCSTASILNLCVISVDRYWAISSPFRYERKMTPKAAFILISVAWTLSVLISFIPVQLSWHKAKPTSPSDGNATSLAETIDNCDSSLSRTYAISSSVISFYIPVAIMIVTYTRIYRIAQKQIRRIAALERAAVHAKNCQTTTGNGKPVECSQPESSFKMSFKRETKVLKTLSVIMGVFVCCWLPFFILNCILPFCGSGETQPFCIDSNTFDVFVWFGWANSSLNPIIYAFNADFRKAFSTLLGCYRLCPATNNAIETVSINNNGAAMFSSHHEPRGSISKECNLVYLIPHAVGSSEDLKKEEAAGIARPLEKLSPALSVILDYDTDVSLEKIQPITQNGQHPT
Method: Dopamine, D1 (human recombinant) binding assay was performed according to published procedures. See, e.g., Jarvie, et al. J. Recept Res., 13(1-4): 573-90 (1993); and Billard, et al. Life Sciences, 35(18): 1885-93 (1984), with modifications

[7] = target: H1 (rat) (Rattus norvegicus, UniProt P31390); assay: H1 (rat) competitive binding assay; details: Table 7A; Ki in nM
Sequence of H1 (rat) (P31390 whole entry): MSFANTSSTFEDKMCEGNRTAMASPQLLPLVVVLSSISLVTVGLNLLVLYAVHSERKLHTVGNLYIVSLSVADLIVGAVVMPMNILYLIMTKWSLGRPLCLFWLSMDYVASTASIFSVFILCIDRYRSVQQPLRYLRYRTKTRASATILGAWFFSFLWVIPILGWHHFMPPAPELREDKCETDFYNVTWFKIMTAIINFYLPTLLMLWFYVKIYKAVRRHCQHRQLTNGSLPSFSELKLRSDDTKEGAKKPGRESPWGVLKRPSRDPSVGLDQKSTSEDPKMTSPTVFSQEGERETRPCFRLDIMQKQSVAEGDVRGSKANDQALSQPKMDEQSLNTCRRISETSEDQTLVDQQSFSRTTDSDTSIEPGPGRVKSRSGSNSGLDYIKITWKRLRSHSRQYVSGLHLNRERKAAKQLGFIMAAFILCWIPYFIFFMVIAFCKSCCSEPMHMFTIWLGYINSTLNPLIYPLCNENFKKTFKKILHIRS
Method: as §1, §2

[8] = target: D2 (h) (Homo sapiens, UniProt P14416); assay: Dopamine D2 binding assay; details: Table 7A; unit inferred
Sequence of D2 (h) (P14416 whole entry): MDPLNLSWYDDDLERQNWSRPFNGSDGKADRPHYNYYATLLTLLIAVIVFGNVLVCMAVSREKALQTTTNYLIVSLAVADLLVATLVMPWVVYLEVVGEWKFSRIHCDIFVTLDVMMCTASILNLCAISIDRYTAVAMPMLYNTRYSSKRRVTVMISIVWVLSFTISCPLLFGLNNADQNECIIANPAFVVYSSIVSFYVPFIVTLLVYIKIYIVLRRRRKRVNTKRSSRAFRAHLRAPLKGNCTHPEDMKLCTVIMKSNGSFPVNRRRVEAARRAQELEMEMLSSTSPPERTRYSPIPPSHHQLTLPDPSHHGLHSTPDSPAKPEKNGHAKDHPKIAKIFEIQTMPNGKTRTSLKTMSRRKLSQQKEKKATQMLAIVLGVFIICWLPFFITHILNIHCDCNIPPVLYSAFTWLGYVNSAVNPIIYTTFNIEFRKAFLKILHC

[9] = target: T5, human recombinant M3 expressed in CHO cells (Homo sapiens, UniProt P20309); assay: M3 muscarinic receptor binding assay; details: Table 7A, third line of column M1 M2 M3
T5 construct: purchased PerkinElmer, Inc., Wellesley, Mass; host or cells: CHO cells
T5 sequence (P20309 whole entry): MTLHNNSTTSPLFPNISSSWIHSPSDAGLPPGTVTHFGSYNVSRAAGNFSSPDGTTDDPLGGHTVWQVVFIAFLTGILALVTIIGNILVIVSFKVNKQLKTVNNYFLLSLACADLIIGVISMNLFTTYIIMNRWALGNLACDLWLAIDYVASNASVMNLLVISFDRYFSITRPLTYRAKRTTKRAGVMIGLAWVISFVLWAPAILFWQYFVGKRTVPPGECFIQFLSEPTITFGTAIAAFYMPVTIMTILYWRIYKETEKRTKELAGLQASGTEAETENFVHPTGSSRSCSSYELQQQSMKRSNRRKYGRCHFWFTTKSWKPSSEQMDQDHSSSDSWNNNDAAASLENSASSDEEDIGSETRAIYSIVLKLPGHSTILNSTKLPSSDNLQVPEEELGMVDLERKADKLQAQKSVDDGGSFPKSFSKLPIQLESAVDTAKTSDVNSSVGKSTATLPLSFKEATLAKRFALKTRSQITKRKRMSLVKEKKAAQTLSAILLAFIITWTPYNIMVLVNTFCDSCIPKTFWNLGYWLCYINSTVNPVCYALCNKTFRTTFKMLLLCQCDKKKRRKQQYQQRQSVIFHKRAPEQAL

T1 sequence (P35367 whole entry): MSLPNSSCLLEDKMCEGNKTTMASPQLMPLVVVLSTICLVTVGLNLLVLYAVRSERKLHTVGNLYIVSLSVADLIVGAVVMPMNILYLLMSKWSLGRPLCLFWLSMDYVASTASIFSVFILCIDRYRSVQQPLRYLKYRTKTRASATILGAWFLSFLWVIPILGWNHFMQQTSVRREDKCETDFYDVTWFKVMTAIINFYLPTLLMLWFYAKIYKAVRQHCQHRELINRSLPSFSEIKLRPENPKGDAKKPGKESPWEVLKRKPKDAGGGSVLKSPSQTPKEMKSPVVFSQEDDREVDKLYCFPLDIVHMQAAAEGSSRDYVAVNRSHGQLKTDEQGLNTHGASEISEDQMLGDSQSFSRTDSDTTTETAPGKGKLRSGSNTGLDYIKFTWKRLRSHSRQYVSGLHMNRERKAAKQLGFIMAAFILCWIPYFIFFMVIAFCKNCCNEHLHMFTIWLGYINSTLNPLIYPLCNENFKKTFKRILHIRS

## Cc1cc2c(s1)Nc1ccccc1N=C2N1CCN(CC2(C(=O)O)CC2)CC1 [Compound 91]
[1]
  Ki: 60.6 nM
[2]
  Ki: > 10000 nM
[3]
  Ki: 30.1 nM
[4]
  Ki: > 10000 nM
[5]
  Ki: 13.3 nM
[6]
  Ki: 278 nM
[7]
  Ki: 53 nM
[8]
  Ki: 202 nM
[9]
  Ki: > 10000 nM

## CCc1cc2c(s1)Nc1ccccc1N=C2N1CCN(CC(C)(C)C(=O)O)CC1 [Compound 90]
[1]
  Ki: 70 nM
[2]
  Ki: > 10000 nM
[3]
  Ki: 30 nM
[4]
  Ki: > 10000 nM
[5]
  Ki: 10.4 nM
[6]
  Ki: 565 nM
[7]
  Ki: 55.5 nM
[8]
  Ki: 196 nM
[9]
  Ki: > 10000 nM

## Cc1cc2c(s1)Nc1ccccc1N=C2N1CCN(CCC(=O)O)CC1 [Compound 92]
[1]
  Ki: 119 nM
[2]
  Ki: > 10000 nM
[3]
  Ki: 53.5 nM
[4]
  Ki: > 10000 nM
[5]
  Ki: 60.7 nM
[6]
  Ki: 129 nM
[7]
  Ki: 95.6 nM
[8]
  Ki: 2480 nM
[9]
  Ki: > 10000 nM

## CC(C)c1cc2c(s1)Nc1ccccc1N=C2N1CCN(CC(C)(C)C(=O)O)CC1 [Compound 94]
[1]
  Ki: 62 nM
[2]
  Ki: > 10000 nM
[3]
  Ki: 45.2 nM
[4]
  Ki: > 10000 nM
[5]
  Ki: 8.2 nM
[6]
  Ki: 300 nM
[7]
  Ki: 110 nM
[8]
  Ki: 107 nM
[9]
  Ki: > 10000 nM

## Cc1cc2c(s1)Nc1ccccc1N=C2N1CCN(CC(C)(C)C(=O)O)CC1 [Compound 46]
[1]
  Ki: 30 nM and 44 nM
[2]
  Ki: > 10000 nM
[3]
  Ki: 56 nM
[3]; from Ki for H1 and M1, M2, M3
  specificity for H1 over the muscarinic receptors: highly specific for H1 over the muscarinic receptors
[4]
  Ki: > 10000 nM
[5]
  Ki: 14.5 nM
[6]
  Ki: 1550 nM
[7]
  Ki: 34 nM
[8]
  Ki: 1100 nM and 533 nM and 847 nM
[9]
  Ki: > 10000 nM
